Measurements published in ChEMBL document CHEMBL2331239, “Inhibiting NF-κB-inducing kinase (NIK): discovery, structure-based design, synthesis, structure-activity relationship, and co-crystal structures” (Bioorg Med Chem Lett, 2013).

Experiments:
[1] = biological target: T1, Mitogen-activated protein kinase kinase kinase 14 (Homo sapiens, UniProt Q99558); test: Inhibition of NIK (unknown origin) autophosphorylation after 1 hr by chemiluminescent assay
[2] = biological target: T1, Mitogen-activated protein kinase kinase kinase 14; test: Inhibition of NIK in human HT-29 cells assessed as LTalpha/beta2-induced p100 processing to NFkappaB2 preincubated for 30 mins before LTalpha/beta2 stimulation measured after 5 hrs; type: cell-based

T1 sequence (Q99558 whole entry): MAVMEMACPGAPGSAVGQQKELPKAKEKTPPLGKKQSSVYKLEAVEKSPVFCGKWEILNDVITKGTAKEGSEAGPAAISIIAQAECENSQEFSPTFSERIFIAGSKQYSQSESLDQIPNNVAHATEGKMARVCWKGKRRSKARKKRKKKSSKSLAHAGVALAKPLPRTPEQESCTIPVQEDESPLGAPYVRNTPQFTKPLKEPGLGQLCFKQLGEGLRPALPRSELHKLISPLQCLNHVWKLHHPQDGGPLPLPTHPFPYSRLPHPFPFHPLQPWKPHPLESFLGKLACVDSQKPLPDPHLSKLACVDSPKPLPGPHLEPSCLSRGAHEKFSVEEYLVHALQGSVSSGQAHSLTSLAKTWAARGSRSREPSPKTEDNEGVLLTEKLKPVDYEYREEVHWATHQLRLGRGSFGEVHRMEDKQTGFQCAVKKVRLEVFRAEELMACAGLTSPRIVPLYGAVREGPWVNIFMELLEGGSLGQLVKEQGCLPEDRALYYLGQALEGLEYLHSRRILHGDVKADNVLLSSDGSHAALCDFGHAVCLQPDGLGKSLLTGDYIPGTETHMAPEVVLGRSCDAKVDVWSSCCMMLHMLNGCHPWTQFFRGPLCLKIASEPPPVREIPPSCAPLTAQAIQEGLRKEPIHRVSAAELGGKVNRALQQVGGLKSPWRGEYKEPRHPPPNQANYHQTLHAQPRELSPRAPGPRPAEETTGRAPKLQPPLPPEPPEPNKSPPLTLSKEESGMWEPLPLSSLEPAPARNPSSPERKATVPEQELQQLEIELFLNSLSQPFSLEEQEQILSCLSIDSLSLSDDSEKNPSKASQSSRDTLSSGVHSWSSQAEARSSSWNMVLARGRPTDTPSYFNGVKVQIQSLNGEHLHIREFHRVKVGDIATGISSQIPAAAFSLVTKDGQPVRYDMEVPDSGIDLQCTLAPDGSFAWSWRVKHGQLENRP

Row | Structure (SMILES) | IC50 [1] [µM] | IC50 [2] [µM]
1 | Cc1nc2ccccn2c1-c1ccnc(N)n1 | > 80 | 
2 | Cc1ccn2c(-c3ccnc(N)n3)c(C)nc2c1 | > 80 | 
3 | Cc1nc2c(C)cccn2c1-c1ccnc(N)n1 | > 80 | 
4 | Cc1cnc(N)nc1-c1c[nH]c2ccc(Cl)cc12 | 0.11 | 
5 | Cc1cnc(N)nc1-c1c(C)[nH]c2ccc(Cl)cc12 | 30 | 
6 | Nc1ncc2c(n1)-c1c([nH]c3ccc(Cl)cc13)CCC2 | 0.07 | 
7 | Nc1ncc2c(n1)-c1c[nH]c3ccc(Cl)c(c13)CC2 | 2.6 | 
8 | Nc1ncc2c(n1)-c1c([nH]c3ccc(Cl)cc13)CC2 | 1.2 | 
9 | Nc1ncc2c(n1)-c1c([nH]c3ccc(Cl)cc13)CCCC2 | 21 | 
10 | Nc1ncc2c(n1)-c1c([nH]c3ccc(Br)cc13)CCC2 | 0.1 | 4.6
11 | Nc1ncc2c(n1)-c1c([nH]c3ccc(C#Cc4cccnc4)cc13)CCC2 | 30 | 
12 | Cn1cncc1C#Cc1ccc2[nH]c3c(c2c1)-c1nc(N)ncc1CCC3 | 30 | 
13 | CC(O)c1ccc(-c2ccc3[nH]c4c(c3c2)-c2nc(N)ncc2CCC4)cc1 (stereo not drawn) | 24 | 
14 | CC(O)c1ccc(-c2ccc3[nH]c4c(c3c2)-c2nc(N)ncc2CCC4)s1 (stereo not drawn) | 15 | 
15 | COCCOc1cnc(N)nc1-c1c[nH]c2ccc(C#CC(C)(C)O)cc12 | 0.04 | 0.02
16 | Cc1nc2ccc(Cl)cn2c1-c1ccnc(N)n1 | 0.6 | 16
17 | Nc1nccc(-c2cnc3ccc(Br)cn23)n1 | 0.19 | 
18 | Cc1nc2ccc(Cl)cc2n1-c1ccnc(N)n1 | 4 | 
19 | Nc1nccc(-n2cnc3ccc(Cl)cc32)n1 | 0.31 | 
20 | Cc1[nH]c2ccc(Cl)cc2c1-c1ccnc(N)n1 | 0.3 | 
21 | Nc1nccc(-c2c[nH]c3ccc(Cl)cc23)n1 | 0.15 | 
22 | Nc1nccc(-n2ccc3ccc(Cl)cc32)n1 | 0.076 | 
23 | Nc1nccc(-n2ccc3ccc(Br)cc32)n1 | 0.089 | 
24 | N#Cc1ccc2ccn(-c3ccnc(N)n3)c2c1 | 0.063 | 
25 | Nc1nccc(N2CCc3ccc(Br)cc32)n1 | 0.55 | 
26 | Nc1nccc(-c2c[nH]c3ccc(F)cc23)n1 | 1.8 | 
27 | COc1ccc2[nH]cc(-c3ccnc(N)n3)c2c1 | 24 | 
28 | N#Cc1ccc2[nH]cc(-c3ccnc(N)n3)c2c1 | 0.063 | 
29 | Cc1ccc2nc(C)c(-c3ccnc(N)n3)n2c1 | 42 | 
30 | Nc1nccc(-c2c[nH]c3ccccc23)n1 | 41 | 
